“Also recorded” adds a separate entry of the source. Numbered stars: 1 amine (or outer) side, 2 acyl side, 3 side chain; on linkers, the order of the positions; unused ones are H or OH. Bridge positions count the residues as written; N and C are the ends. Square brackets hold non-standard residues; d marks the D form. Peptide text beside a SMILES is read from it. I, II: the chains in the order shown. Actinocin(9to1) = Cc1c2oc3c(C)ccc(C(=O)[*:1])c3nc-2c(C(=O)[*:2])c(N)c1=O; NMeV = CN[C@H](C(=O)O)C(C)C; Sar = CNCC(=O)O
Assays:
[1] = tested on: axon degeneration of DRG neurons following NGF withdrawal; test: Campenot chamber localized axon degeneration after NGF withdrawal (Tuj1 immunostaining); format: cell-based, mouse; settings: for axon degeneration due to NGF deprivation, inhibitor applied to the axon (axon inhibition): inhibitor in axon compartment, 28 hours NGF deprivation of axons, anti-NGF antibody 50 μg/ml; for axon degeneration due to NGF deprivation, inhibitor applied to the cell body (cell body inhibition): inhibitor in cell body compartment with 25 ng/ml NGF, axons deprived of NGF
Description: Campenot chambers were used to perform the following experiments which allow for the separation of somal and axonal environments, and permit the induction of localized degeneration (see FIG. 1 and, e.g., Zweifel et al., Nat. Rev. Neurosci. 6(8):615-625, 2005). In such chambers, axon degeneration is localized and proceeds without apoptosis.
Mouse laminin (5 μg/ml in sterile filtered water; Invitrogen) was added to PDL coated 35 mm dishes (BD Biosciences) and they were incubated for 1 hour at 37° C., followed by two rinses in SQ water. The dishes were vacuum-dried and then air-dried in a laminar flow hood for 15 minutes. Prepared dishes were then scored with a pin rake (Tyler Research). Fifty microliters of NBM+MC solution containing NGF was applied across the resulting score tracks. The NBM+MC solution was made as follows: 1750 mg of methylcellulose was combined with 480 ml of Neurobasal (Invitrogen), to which was added 4.5 ml penicillin/streptomycin, 7.5 ml L-glutamine, and 10 ml B-27 serum-free supplement (Invitrogen). The solution was mixed for one hour at room temperature, overnight at 4° C., and one further hour at room temperature. The solution was then filter sterilized, and 50 ng/ml NGF (Roche) was added prior to use. High vacuum grease (VWR) was added to each Teflon divider under a dissection scope. The laminin coated PDL dishes were inverted and dropped onto the Teflon divider, with additional pressure added by use of a toothpick in the non-track-containing regions. Dishes were incubated for 1 hour at 37° C. Five hundred microliters of NBM+MC (50 ng/ml NGF) solution was added to each of the side compartments, and a grease barrier was added in front of the center cell slot.
Free E13.5 spinal cords were dissected from mouse embryos and placed into NBM+MC (25 ng/ml NGF) solution. DRGs were detached from the spinal cord with a tungsten needle. An NBM+MC-lubricated P200 pipette was used to move DRGs into a 1.5 ml tube. DRGs were pelleted with a tabletop centrifuge for 30 seconds. The supernatant was discarded and 0.05% Trypsin/EDTA (cold) was added. The pellet was resolubilized with a pipette and incubated at 37° C. for 15 minutes with constant agitation (650 RPM). The sample was again centrifuged and the supernatant discarded. The pellet was resuspended in warm NBM+MC (50 ng/ml NGF) solution and triturated with a flamed glass pipette 20 times, followed by trituration with a fire-bored glass pipette another 20 times. The samples were again centrifuged and the resulting pellets were resuspended in 0.5 ml NBM+MC (50 ng/ml NGF) solution. The cells were diluted to a final concentration of 2.5×10^6 cells/ml. The cell suspensions were loaded into a 1 ml syringe with a 22 gauge needle. The center slot of the Campenot divider was filled using the syringe (to a volume of at least 50 μl). The Campenot chamber was incubated overnight at 37° C. 2.5 ml NGF+MC (50 ng/ml NGF) solution was added to the center compartment and the grease gate was removed. The outer medium (cell body compartment) was replaced after three days with 2.5 ml NBM+MC medium (with 25 ng/ml NGF).
After five days in culture, the axonal compartment was washed three times with warmed NBM+MC (no NGF) solution. After the third wash, 500 μl NBM+MC (no NGF) solution was added to the axon compartment in combination with either 0.5% DMSO or an inhibitor. The cell body compartment was replaced with 2.5 ml NBM+MC medium (with 25 ng/ml NGF) containing either 0.5% DMSO or inhibitor. Fifty μg/ml anti-NGF antibody was added to the axonal compartment. Another axon compartment was maintained in NGF as a control.
After 28 hours of NGF deprivation for axons, and 25 hours of NGF deprivation for cell bodies, 8% PFA/30% sucrose solution was added directly to the culture medium at a 1:1 dilution and incubated for 30 minutes. The Teflon divider was removed after the first 15 minutes of addition. […]

[2] = tested on: dleu2 and tbx6 expression; test: Time course microarray analysis of neurons in Campenot chambers undergoing axon loss; format: cell-based, mouse; settings: 30 μM inhibitor in outer compartment, NGF deprivation for 6 and 12 hours
Description: Based on the experiments described above, glycogen synthase kinase-3 (GSK-3) was identified as being a regulator of a genetic axon degeneration program acting specifically in the cell body to regulate distal axon degeneration. To identify GSK3 regulated axon degeneration genes, time course microarray analysis was performed on neurons selectively undergoing […], with or without GSK-3 inhibition.
Briefly, neurons were isolated and cultured in Campenot chambers as previously described. Campenot chambers were set up with 50 μM 5-fluoro-2′-deoxyuridine/uridine (both Sigma) added to the culture medium to reduce contamination by non-neuronal cells. On day 5, both axon compartments were washed three times with NGF-free medium and on the fourth wash, replaced with medium containing NGF (control) or NGF antibodies (50 μg/ml) (911, Genetech). The outer compartment was replaced with medium containing 30 μM of the GSK3 inhibitor ARA (EMD Biosciences) or 0.3% DMSO. RNA was extracted from neurons with or without GSK3 ARA treatment which had been cultured with NGF or deprived of NGF for 6 and 12 hours. RNA was prepared with Trizol® (Invitrogen) followed by the RNeasy® Micro Kit processing with DNAse I treatment (Qiagen) as described in Appendix C of the RNeasy® Micro Kit manual. For each condition, five Agilent Whole Mouse Genome microarray chips were used with single amplification.

| SMILES | axon degeneration due to NGF deprivation, inhibitor applied to the axon (axon inhibition) [1] | axon degeneration due to NGF deprivation, inhibitor applied to the cell body (cell body inhibition) [1] | axon degeneration due to NGF deprivation, inhibitor applied to the axon (axon inhibition) ([1]; listed as actinomycin D) | axon degeneration due to NGF deprivation, inhibitor applied to the cell body (cell body inhibition) ([1]; listed as actinomycin D) | overexpression of dleu2 and tbx6 in neurons deprived of NGF [2] | overexpression of dleu2 and tbx6 in neurons deprived of NGF ([2]; listed as GSK3.ARA) |
| --- | --- | --- | --- | --- | --- | --- |
| N#C/C(=C\c1ccc(O)c(O)c1)C(=O)NCCCc1ccccc1 [AG555] | exhibited less degeneration; also recorded: prevented axonal degradation | failed to prevent degeneration; also recorded: did not provide the same protective effect | – | – | – | – |
| Cc1c2oc3c(C)ccc(C(=O)N[C@@H]4C(=O)N[C@H](C(C)C)C(=O)N5CCC[C@H]5C(=O)N(C)CC(=O)N(C)[C@@H](C(C)C)C(=O)O[C@@H]4C)c3nc-2c(C(=O)N[C@@H]2C(=O)N[C@H](C(C)C)C(=O)N3CCC[C@H]3C(=O)N(C)CC(=O)N(C)[C@@H](C(C)C)C(=O)O[C@@H]2C)c(N)c1=O [Act D, actinomycin D] (I: T[dV]P[Sar][NMeV] / II: T[dV]P[Sar][NMeV]; ester I:1-I:C, II:1-II:C; linker I:N-II:N via Actinocin(9to1)) | did not prevent axonal degradation | axon degradation due to NGF deprivation was reduced | did not provide the same protective effect | prevented axonal degeneration | – | – |
| COc1nccc(-c2c(-c3ccc(F)cc3)ncn2C2CCC(O)CC2)n1 (stereo not drawn) [SB239] | exhibited less degeneration; also recorded: prevented axonal degradation | failed to prevent degeneration; also recorded: did not provide the same protective effect | – | – | – | – |
| O=C1NC(=O)C(c2ccccc2[N+](=O)[O-])=C1Nc1ccc(O)c(Cl)c1 [SB415] | did not prevent axonal degradation; also recorded: did not provide the same protective effect | axon degradation due to NGF deprivation was reduced; also recorded: prevented axonal degeneration | – | – | – | – |
| COc1ccc(CNC(=O)Nc2ncc([N+](=O)[O-])s2)cc1 [GSK3 ARA] | – | – | – | – | overexpression of these genes is not observed at any time point | Increased expression of dleu2 and tbx6 is not observed |

Reference: US20140255301A1, “METHODS FOR DETECTING NEURODEGENERATIVE DISEASES OR DISORDERS” (priority 2010, published 2014)
